Results reported in ChEMBL document CHEMBL2375252, “Novel indoline-2,3-dione derivatives as inhibitors of aminopeptidase N (APN)” (Bioorg Med Chem, 2013).

Legend:
[1] = target: Histone deacetylase 1/3/5/8 (Homo sapiens, UniProt Q13547+O15379+Q9UQL6+Q9BY41); assay: Inhibition of HDAC1/3/5/8 in human HeLa cell extract using Boc-Lys-(acetyl)-AMC as substrate incubated for 5 mins prior to substrate addition measured after 30 mins by fluorometric analysis; type: protein assay
Aminopeptidase N [2] = target: T1, Aminopeptidase N (Sus scrofa, UniProt P15145); assay: Inhibition of pig kidney microsome aminopeptidase-N using L-leu-p-nitroanilide as substrate incubated for 5 mins prior to substrate addition measured after 30 mins by spectrophotometric analysis
T1 sequence (P15145 whole entry): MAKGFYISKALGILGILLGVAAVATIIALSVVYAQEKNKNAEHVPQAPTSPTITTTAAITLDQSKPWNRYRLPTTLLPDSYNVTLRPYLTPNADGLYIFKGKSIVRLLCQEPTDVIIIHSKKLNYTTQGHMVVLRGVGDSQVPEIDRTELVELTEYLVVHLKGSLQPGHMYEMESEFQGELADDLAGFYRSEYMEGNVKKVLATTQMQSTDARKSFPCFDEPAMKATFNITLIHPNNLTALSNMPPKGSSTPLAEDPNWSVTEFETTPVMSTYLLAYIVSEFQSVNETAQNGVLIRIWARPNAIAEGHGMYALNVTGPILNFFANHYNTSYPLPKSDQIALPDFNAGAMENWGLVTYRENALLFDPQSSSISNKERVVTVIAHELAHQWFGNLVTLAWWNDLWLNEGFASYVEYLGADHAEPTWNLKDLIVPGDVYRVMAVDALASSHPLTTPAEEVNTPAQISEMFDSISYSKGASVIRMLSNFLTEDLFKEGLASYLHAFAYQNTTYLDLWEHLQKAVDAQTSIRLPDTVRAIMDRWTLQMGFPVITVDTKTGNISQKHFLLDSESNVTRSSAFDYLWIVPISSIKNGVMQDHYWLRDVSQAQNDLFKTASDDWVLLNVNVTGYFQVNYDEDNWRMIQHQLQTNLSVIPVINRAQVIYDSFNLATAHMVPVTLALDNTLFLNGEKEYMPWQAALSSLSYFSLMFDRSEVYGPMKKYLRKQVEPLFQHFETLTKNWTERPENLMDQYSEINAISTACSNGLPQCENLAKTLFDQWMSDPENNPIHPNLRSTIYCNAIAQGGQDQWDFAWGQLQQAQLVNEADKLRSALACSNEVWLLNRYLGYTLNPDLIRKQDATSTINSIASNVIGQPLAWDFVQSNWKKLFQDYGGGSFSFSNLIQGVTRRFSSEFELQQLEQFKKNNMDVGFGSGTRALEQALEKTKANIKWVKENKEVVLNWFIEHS

[3] = Cytotoxicity against human ES2 cells after 48 hrs by MTT assay; details: ES-2, 48 h
Aminopeptidase N [4] = target: Aminopeptidase N (Homo sapiens, UniProt P15144); assay: Inhibition of aminopeptidase-N in human ES2 cells using L-leu-p-nitroanilide as substrate incubated for 5 mins prior to substrate addition measured after 30 mins by spectrophotometric analysis; type: cell-based
MDA-MB-231 = assay: cells; details: Homo sapiens, MDA-MB-231, 48 h
Description: Cytotoxicity against human MDA-MB-231 cells after 48 hrs by MTT assay

Chain of Aminopeptidase N (Homo sapiens, UniProt P15144) (P15144 whole entry): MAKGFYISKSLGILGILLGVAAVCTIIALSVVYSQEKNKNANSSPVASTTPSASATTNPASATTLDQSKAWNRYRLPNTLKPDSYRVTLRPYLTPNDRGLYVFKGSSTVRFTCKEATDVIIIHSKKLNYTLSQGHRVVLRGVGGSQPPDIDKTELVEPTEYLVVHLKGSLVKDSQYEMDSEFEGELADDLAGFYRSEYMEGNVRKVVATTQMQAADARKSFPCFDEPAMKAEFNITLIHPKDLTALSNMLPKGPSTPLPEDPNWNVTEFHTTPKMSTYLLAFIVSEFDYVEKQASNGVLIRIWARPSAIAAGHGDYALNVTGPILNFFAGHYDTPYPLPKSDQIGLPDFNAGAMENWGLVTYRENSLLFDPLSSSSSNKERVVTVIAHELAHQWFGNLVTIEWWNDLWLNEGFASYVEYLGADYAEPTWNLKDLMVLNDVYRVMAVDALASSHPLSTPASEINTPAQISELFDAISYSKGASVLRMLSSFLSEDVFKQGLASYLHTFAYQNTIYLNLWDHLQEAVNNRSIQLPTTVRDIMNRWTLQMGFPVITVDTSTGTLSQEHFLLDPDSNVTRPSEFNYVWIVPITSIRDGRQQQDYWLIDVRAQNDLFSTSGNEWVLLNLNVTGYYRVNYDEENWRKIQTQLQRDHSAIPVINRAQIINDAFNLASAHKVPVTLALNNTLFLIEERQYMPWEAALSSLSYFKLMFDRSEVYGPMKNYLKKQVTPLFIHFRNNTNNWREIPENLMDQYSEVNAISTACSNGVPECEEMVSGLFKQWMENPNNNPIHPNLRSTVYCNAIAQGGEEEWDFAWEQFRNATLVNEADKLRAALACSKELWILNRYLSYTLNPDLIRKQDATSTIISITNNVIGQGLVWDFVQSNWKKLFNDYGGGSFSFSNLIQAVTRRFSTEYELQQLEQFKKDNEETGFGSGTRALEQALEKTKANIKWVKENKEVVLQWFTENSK

Row | Compound | IC50 [1] | IC50 (Aminopeptidase N [2]) | IC50 (Aminopeptidase N [4]) | IC50 (MDA-MB-231) | IC50 [3]
1 | O=C(CN1C(=O)C2(OCCO2)c2cc(Br)ccc21)NO | > 100 µM |  |  |  | 
2 | CC(C)C[C@H](NC(=O)CN1C(=O)C2(OCCO2)c2cc(Br)ccc21)C(=O)NO |  | 22.5 µM |  |  | 
3 | CC[C@H](C)[C@H](NC(=O)CN1C(=O)C2(OCCO2)c2cc(Br)ccc21)C(=O)NO |  | 631 µM |  |  | 
4 | O=C(CN1C(=O)C2(OCCO2)c2cc(Br)ccc21)NC(C(=O)NO)c1ccccc1 (stereo not drawn) |  | > 1000 µM |  |  | 
5 | CC(C)[C@H](NC(=O)CN1C(=O)C2(OCCO2)c2cc(Br)ccc21)C(=O)NO |  | 226 µM |  |  | 
6 | O=C(CN1C(=O)C2(OCCO2)c2ccccc21)NO |  | 209 µM |  |  | 
7 | O=C(CN1C(=O)C2(OCCCO2)c2ccccc21)NO |  | 266 µM |  |  | 
8 | O=C(CN1C(=O)C2(OCCO2)c2cc(Br)ccc21)N[C@@H](Cc1ccccc1)C(=O)NO |  | 26.4 µM |  |  | 
9 | CC(C)C[C@H](NC(=O)[C@@H](O)[C@H](N)Cc1ccccc1)C(=O)O [UBENIMEX] |  |  |  |  | 632 µM

The remaining compounds from weak to strong by IC50 (Aminopeptidase N [2]), led by results:

Row | IC50 [1] | IC50 (Aminopeptidase N [2]) | IC50 (Aminopeptidase N [4]) | IC50 (MDA-MB-231) | Compound | IC50 [3]
10 | > 100 µM | 6.71 µM | 97.5 µM | 576 µM | O=C(CN1C(=O)C2(OCCCO2)c2cc(F)ccc21)NO | 457 µM
11 | 0.33 µM | 6.6 µM |  |  | O=C(CNC(=O)CN1C(=O)C2(OCCO2)c2cc(Br)ccc21)NO | 
12 | > 100 µM | 5.3 µM | 16.2 µM | 180 µM | O=C(CN1C(=O)C2(OCCO2)c2cc(F)ccc21)NO | 142 µM
13 | > 100 µM | 4.06 µM | 15.2 µM | 114 µM | O=C(CN1C(=O)C2(OCCCCO2)c2cc(F)ccc21)NO | 553 µM
14 | > 100 µM | 3.4 µM | 19.7 µM | 55.1 µM | O=C(CN1C(=O)C2(OCCCO2)c2cc(Br)ccc21)NO | 137 µM
15 |  | 3.33 µM |  |  | Cc1ccc2c(c1)C1(OCCCO1)C(=O)N2CC(=O)NO | 
16 |  | 2.63 µM |  |  | Cc1ccc2c(c1)C1(OCCO1)C(=O)N2CC(=O)NO | 
17 | > 100 µM | 1.3 µM | 10.9 µM | 259 µM | O=C(CN1C(=O)C2(OCCCO2)c2cc(Cl)ccc21)NO | 233 µM
18 | > 100 µM | 0.31 µM | 9.58 µM | 177 µM | O=C(CN1C(=O)C2(OCCO2)c2cc(Cl)ccc21)NO | 167 µM
19 | > 100 µM | 0.086 µM | 12.1 µM | 32.9 µM | O=C(CN1C(=O)C2(OCCCCO2)c2cc(Br)ccc21)NO | 409 µM
20 | > 100 µM | 0.074 µM | 3.12 µM | 91.5 µM | O=C(CN1C(=O)C2(OCCCCO2)c2cc(Cl)ccc21)NO | 212 µM
